# Read-outs that look alike come from different tables or passages of the source.
# Columns and labels:
# [1] = set-up: method as in PMID 29403987; conditions: healthy volunteers, single oral dose of albendazole 400 mg; ref [41]; cited from earlier work
# [2] = cited from earlier work
# [3] = PBPK model simulation in Healthy Human Volunteer Population; conditions: healthy volunteers, albendazole 400 mg oral
# Description: Clinically observed plasma profiles of ABZ and ABZ_SO were digitized from a published study using WebPlotDigitizer (Version 4.2, Austin, TX, USA), and the systemic exposure parameters (Cmax, AUC) were used to verify the model. PBPK model simulations were performed using the Healthy Human Volunteer Population according to the design of the referenced clinical study: 10 subjects (6 male, 4 female), aged 21 to 44 years, single oral dose of albendazole (400 mg). Model verification was based on visual inspection of the simulated ABZ and ABZ_SO mean plasma versus time profiles compared to observed data, and the fold error (ratio of model predicted and observed values) for Cmax and AUC of ABZ and ABZ_SO.
# [4] = set-up: method as in Literature; conditions: ref Literature; cited from earlier work
# CYP3A4 = conditions: ref [36]; cited from earlier work
# FMO3 = conditions: ref [36]; cited from earlier work
# [5] = Equilibrium solubility by shake flask method; assay type: physicochemical
# Description: The equilibrium solubility of ABZ was measured by the shake flask method at 37 ± 2 °C in different pH solution systems: 0.1 N HCl (pH 1.20 ± 0.01 and pH 2.0 ± 0.01), 0.02 M acetate buffer (pH 4.5 ± 0.02), and 0.05 M phosphate buffer (pH 6.8 ± 0.01). Solubility was also determined in FaSSGF (pH 1.6 ± 0.01), FaSSIF (pH 6.5 ± 0.01), and FeSSIF (pH 5.0 ± 0.01) containing bile concentrations of 0.08 mM, 3 mM, and 15 mM, respectively. For each experiment, an excess amount of ABZ (~10 mg) was dispersed in 3 mL of solution. A sample was collected after 72 h and filtered using 0.45 µm polytetrafluoroethylene membrane disc filters (Pall Corp., New York, NY, USA). The samples were analyzed using a validated HPLC method. All experiments were performed in triplicate. The pH solubility profile and biorelevant solubility data for ABZ were analyzed using Simcyp™ In Vitro Data Analysis (SIVA, Certara UK Ltd., Sheffield, UK) software in order to estimate intrinsic solubility and the micelle-buffer partition coefficient (log Km:w). These parameter values were incorporated into the PBPK model for ABZ.
# [6] = Particle size distribution by laser diffraction; assay type: physicochemical; conditions: pure ABZ
# Description: Particle size distribution (PSD) data for the marketed formulation are not publicly available. […] The particle size distribution of ABZ was measured by laser diffraction using a Mastersizer 3000 equipped with Aero S (dry dispersion feeder unit). The instrument software was used to calculate d10, d50, and d90, representing the volume percentage or portion of particles below the 10th, 50th, and 90th percentiles, respectively. PSD was characterized as a Weibull distribution function, and the data were analyzed to estimate the Weibull parameter values and mean radiuses, which served as the input parameters in the model development.
# [7] = Transfer system experiment (FaSSGF to FaSSIF) for precipitation kinetics; assay type: physicochemical; conditions: for Precipitation rate constant (PRC): max. value
# Description: These experiments were carried out in order to characterize the precipitation kinetics of ABZ in a system designed to mimic the physiologic conditions in the GI tract as the drug moves from the stomach to the small intestine, where precipitation is inevitable and limits the availability of the soluble drug for absorption. To simulate the impact on solubility when the drug transits from the stomach into the intestine, the experimental system (Figure 1) consisted of two physiologically relevant compartments with allowances for modifications in transfer rate (representing the GI emptying rate), paddle speeds (representing the hydrodynamics inside the GI tract), and composition (representing fasted vs. fed conditions). A conventional dissolution system (Distek 5100, Distek Inc., North Brunswick Township, NJ, USA) with a USP-II paddle method was utilized. The gastric compartment contained FaSSGF media (250 mL, pH 1.6), and FaSSIF media (500 mL, pH 6.5), which constituted the intestinal compartment. FaSSIF was prepared with a higher buffer capacity to minimize pH changes after the complete transfer of the simulated gastric media. The paddle speed was maintained at 100 rpm for both compartments. The transfer was initiated after 30 min at a constant rate of 7 mL/min using an Econo™ Gradient pump (Bio-Rad Laboratories, Inc., Hercules, CA, USA). The following experiments were carried out: (a) 40 mg of free ABZ base (neat API) to maintain the sink condition in the gastric media. (b) Marketed immediate-release formulation (equivalent to 40 mg of ABZ) to maintain the sink condition and to determine the effect of excipients on promoting the supersaturation state. (c) Marketed immediate-release tablet formulation (400 mg of ABZ).
# The gastric compartment was sampled at 5, 15, and 30 min, at which time the transfer to the intestinal compartment was initiated. Then, samples were collected from the intestinal compartment for an additional 90 min (32, 35, 40, 45, 50, 60, 75, 90, 105, and 120 min). Samples were filtered through 0.45 µm PTFE filters and immediately diluted with the mobile phase before quantitative analysis by HPLC. All dissolution experiments were performed in triplicate.
# physchem = conditions: aqueous pH solution systems (pH solubility profile), 37 °C, aqueous buffer, thermodynamic from solid
# Description: The equilibrium solubility of ABZ was measured by the shake flask method at 37 ± 2 °C in different pH solution systems: 0.1 N HCl (pH 1.20 ± 0.01 and pH 2.0 ± 0.01), 0.02 M acetate buffer (pH 4.5 ± 0.02), and 0.05 M phosphate buffer (pH 6.8 ± 0.01). Solubility was also determined in FaSSGF (pH 1.6 ± 0.01), FaSSIF (pH 6.5 ± 0.01), and FeSSIF (pH 5.0 ± 0.01) containing bile concentrations of 0.08 mM, 3 mM, and 15 mM, respectively [25]. For each experiment, an excess amount of ABZ (~10 mg) was dispersed in 3 mL of solution. A sample was collected after 72 h and filtered using 0.45 µm polytetrafluoroethylene membrane disc filters (Pall Corp., New York, NY, USA). The samples were analyzed using a validated HPLC method. All experiments were performed in triplicate. The pH solubility profile and biorelevant solubility data for ABZ were analyzed using Simcyp™ In Vitro Data Analysis (SIVA, Certara UK Ltd., Sheffield, UK) software in order to estimate intrinsic solubility and the micelle-buffer partition coefficient (log Km:w). These parameter values were incorporated into the PBPK model for ABZ.
# Data from dissolution experiments were used to estimate intrinsic solubility and bile-salt micelle-mediated solubilization using SIVA. Micelle buffer partition coefficients (log Km:w) for ABZ, both in neutral and ionic species of ABZ, were estimated using observed solubilities in biorelevant media.
# [8] = set-up: method as in PMID 7571717; conditions: in humans; ref [43]; cited from earlier work
smiles,measurement,setting,value
"CCC[S+]([O-])c1ccc2[nH]c(NC(=O)OC)nc2c1 (stereo not shown) [ABZ_SO, albendazole sulfoxide]",AUC0–∞ (observed),[1],3475 ng·h/mL
same,Cmax (Observed),[1],193.5 ng/mL
same,pKa1 (Ampholyte),"[2]; PBPK input, ref [35]",9.79
same,Log Po:w,"[2]; PBPK input, ref [38]",1.17
same,"Fold error, AUC0–∞ (predicted parameter/observed parameter)",[3],0.97
same,"Fold error, Cmax (predicted parameter/observed parameter)",[3],1.01
same,fu (fraction unbound in plasma),[4],0.3
"CCCSc1ccc2nc(NC(=O)OC)[nH]c2c1 [ABZ, Albendazole]",Km,CYP3A4,10.1 µM
same,Vmax,CYP3A4,369 pmol/min/pmol
same,AUC0–∞ (observed),[1],53.0 ng·h/mL
same,Cmax (Observed),[1],9.55 ng/mL
same,Log Po:w,"[2]; PBPK input, ref [34]",2.7
same,pKa1 (Ampholyte),"[2]; PBPK input, ref [35]",10.3
same,pKa2 (Ampholyte),"[2]; PBPK input, ref [35]",2.8
same,pKa1 (Ampholyte),"[2]; PBPK input, ref [35], listed as Albendazole",10.26
same,BCS class,[2]; low solubility and high permeability,BCS class II
same,Km,FMO3,9.6 µM
same,Vmax,FMO3,1103 pmol/min/pmol
same,solubility at 72 h,"[5]; 0.02 M acetate buffer, 37 °C, pH 4.5, aqueous buffer, thermodynamic from solid, pH 4.5 Acetate buffer, 37 ± 2.0 °C, read-out: Solubility",8 ± 2 µg/mL
same,solubility at 72 h,"[5]; 0.05 M phosphate buffer, 37 °C, pH 6.8, aqueous buffer, thermodynamic from solid, pH 6.8, read-out: solubility",~5 µg/mL
same,solubility at 72 h,"[5]; 0.05 M phosphate buffer, 37 °C, pH 6.8, aqueous buffer, thermodynamic from solid, pH 6.8 Phosphate buffer, 37 ± 2.0 °C, read-out: Solubility",5 ± 1 µg/mL
same,solubility at 72 h,"[5]; 0.1 N HCl, 37 °C, pH 1.2, simulated gastric fluid, thermodynamic from solid, pH 1.2, read-out: maximum solubility",~500 µg/mL
same,solubility at 72 h,"[5]; 0.1 N HCl, 37 °C, pH 1.2, simulated gastric fluid, thermodynamic from solid, pH 1.2 HCl buffer, 37 ± 2.0 °C, read-out: Solubility",515 ± 45 µg/mL
same,solubility at 72 h,"[5]; 0.1 N HCl, pH 2, pH 2.0 HCl buffer, 37 ± 2.0 °C, read-out: Solubility",25 ± 5 µg/mL
same,solubility at 72 h,"[5]; FaSSGF, 37 °C, pH 1.6, fassgf or other biorelevant, thermodynamic from solid, FaSSGF (pH 1.6), 37 ± 2.0 °C, read-out: Solubility",146 ± 12 µg/mL
same,solubility at 72 h,"[5]; FaSSGF, 37 °C, pH 1.6, fassgf or other biorelevant, thermodynamic from solid, FaSSGF, read-out: solubility",~146 µg/mL
same,solubility at 72 h,"[5]; FaSSIF, 37 °C, pH 6.5, fassif, thermodynamic from solid, FaSSIF (pH 6.5), 37 ± 2.0 °C, read-out: Solubility",8 ± 1 µg/mL
same,solubility at 72 h,"[5]; FaSSIF, 37 °C, pH 6.5, fassif, thermodynamic from solid, FaSSIF, read-out: solubility",8.2 µg/mL
same,solubility in FeSSIF compared to FaSSIF,[5]; FeSSIF vs FaSSIF,2 fold
same,solubility at 72 h,"[5]; FeSSIF, pH 5, FeSSIF (pH 5.0), 37 ± 2.0 °C, read-out: Solubility",21 ± 4 µg/mL
same,solubility at 72 h,"[5]; FeSSIF, pH 5, FeSSIF, read-out: solubility",~20.5 µg/mL
same,d10,[6]; laser diffraction,0.95 ± 0.10 µm
same,d50,[6]; laser diffraction,4.1 ± 0.64 µm
same,d90,[6]; laser diffraction,22 ± 1.3 µm
same,"Particle size distribution, Mean Radius",[6]; polydispersed,7.52 µm
same,"Particle size distribution, Weibull Alpha",[6]; polydispersed,1.014
same,"Particle size distribution, Weibull Beta",[6]; polydispersed,8.732
same,dissolution in FaSSGF within 30 min,"[7]; 40 mg dose, FaSSGF 250 mL pH 1.6",completely dissolved
same,precipitation upon transfer to FaSSIF,"[7]; 40 mg dose, FaSSIF pH 6.5",immediate precipitation
same,Critical Supersaturation Ratio (CSR),"[7]; set from transfer experiment, FaSSIF",1
same,Precipitation rate constant (PRC),[7]; set from transfer experiment,1000 h⁻¹
same,Precipitation rate constant (PRC),"[7]; set from transfer experiment, listed as Albendazole",1000 (max. value) 1/h
same,solubility at 72 h,physchem,12 µg/mL
same,"Fold error, AUC0–∞ (predicted parameter/observed parameter)",[3],1.13
same,"Fold error, Cmax (predicted parameter/observed parameter)",[3],1.16
same,absolute oral bioavailability,[8],< 5%
